Experiment [1] relates to Arabidopsis thaliana transformed with Hydrilla PDS constructs. Put plainly: Herbicide resistance of transformed Arabidopsis T1 seedlings. Type of experiment: in vivo. From the text: Binary vectors for pds expression in plants included the 1-323 by upstream of the beginning of the putative mature protien, which is assumed to encode for chloroplast signal peptide/s. pHy4ATG5 was mutagenized at the amino acid 304 of pds to replace Arginine by Histidine, Threonine, Serine, or Cysteine, using the QuickChange™ Site-Directed Mutagenesis Kit of Stratagene (La Jolla, Calif.) and the same mutagenesis primers used for p3ORF-ATG indicated in the previous section. The resulting plasmids in this case were pHy4His, pHy4Thr, pHy4Ser and pHy4Cys. A 1.8 kb fragment between the TOPO4 SpeI site and the pds SspI site containing the pds gene was cloned into pCAMBIA1303 (CAMBIA, Canberra, Australia) SpeI-Pm1I sites (SspI and PmlI are compatible) replacing the 2.5 kb gus:mgfp; the resulting plasmid was designated pPDATG1303. The same strategy was used for each of the clones containing amino acid changes, generating plasmids pPDHIS1303, pPDTHR1303, pPDSER1303 and pPDCYS1303. The selectable marker in these constructs is the hygromycin phosphotransferase gene (hptll) for resistance to hygromycin in plants.
Arabidopsis thaliana ecotype Columbia (Col-0) was transformed with Agrobacterium using the floral dip method (Clough, S. J. and Bent, A. F. (1998) Floral dip: a simplified method for Agrobacterium-mediated transformation of Arabidopsis thaliana. The Plant Journal 16(6):735-743). Plants were grown at 21° C. with 16 h/8 h day and night until flowering and continuous light after inoculation (plants inoculated with Agrobacterium were denominated T0 plants). Selection of T1 (seeds produced by T0 plants) seedlings was performed on Petri plates with half-strength Murashige and Skoog (MS) medium (Murashige, T. and Skoog, F. (1962) A revised medium for rapid grOwth and bioassays with tobacco tissue cultures. Physiologia plantarum 15:473-497) supplemented with 1% sucrose, 0.2% phytagel and 300 μg/ml cefotaxime. […]
DNA was extracted according to Dilworth and Frey (2000)foreign genes detected by PCR. […]

Experiment [2] has as its target Hydrilla PDS Arg^304 Arginine (wildtype) (Hydrilla verticillata, UniProt Q66PY0). The experiment in a line: Fluridone enzyme inhibition assay, non-His-tagged PDS (Table 1). The note with it: Arginine at 304 (reference). The class given is biochemical. Here is the method:
The expression constructs in Table 1 were derived from an original clone of the susceptible PDS gene from Hydrilla and then the Arg^304 was mutated to the listed amino acid. Expression was under the control of the lac promoter […] with the initiation codon of the LacZalpha-ccdB gene in the pCR4-TOPO vector (Invitrogen Inc., CA, Cat. #K4575-01).
All mutagenesis was performed, unless stated otherwise, using the TOPO-vector containing the wildtype (H4) PDS-sequence, which was extracted from an overnight culture with the Qiagen Plasmid Prep Kit as described above. The amount of the extracted plasmid was diluted to 10 ng/μl and used as template in a mutagenesis-procedure using the QuikChange Site-directed Mutagenesis Kit (Stratagene, Calif., #200518). The design of the mutagenesis-primers was conducted according to the manufacturers protocol to enable the specific change of Arg^304-codon to code for the desired amino acid. Primers (purchased from MWG-Biotech) and their introduced amino acid change are listed below with the changed codon underlined:
The reactions were performed according to the manufacturers protocol. […] Sequences were assembled and analyzed using Seqman. […]
Phytoene desaturase activity and its inhibition by herbicides was determined using an in vitro system using components derived from the in vivo production of phytoene and phytoene desaturase proteins. […]

The values that follow come from patent US20110098180A1, “Herbicide-Resistant Plants, And Polynucleotides And Methods For Providing Same” (United States Department of Agriculture, priority 2002, published 2011).

Sequence of Hydrilla PDS Arg^304 Arginine (wildtype) (Q66PY0 1-580): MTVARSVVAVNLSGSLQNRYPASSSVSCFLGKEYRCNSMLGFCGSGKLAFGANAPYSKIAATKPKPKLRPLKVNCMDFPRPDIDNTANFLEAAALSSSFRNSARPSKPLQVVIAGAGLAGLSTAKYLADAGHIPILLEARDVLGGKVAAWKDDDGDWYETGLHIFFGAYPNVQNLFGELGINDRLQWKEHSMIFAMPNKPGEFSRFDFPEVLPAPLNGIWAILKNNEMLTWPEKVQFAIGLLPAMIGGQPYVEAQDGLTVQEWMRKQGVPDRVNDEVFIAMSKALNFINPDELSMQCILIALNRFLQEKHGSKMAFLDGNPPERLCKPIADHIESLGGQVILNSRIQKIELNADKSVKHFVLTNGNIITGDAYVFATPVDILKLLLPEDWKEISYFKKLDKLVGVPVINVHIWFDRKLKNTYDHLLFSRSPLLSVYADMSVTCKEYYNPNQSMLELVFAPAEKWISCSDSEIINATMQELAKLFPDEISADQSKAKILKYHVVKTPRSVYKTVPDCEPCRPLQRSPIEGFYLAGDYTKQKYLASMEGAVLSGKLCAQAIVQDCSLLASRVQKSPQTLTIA

For `CNc1cnn(-c2cccc(C(F)(F)F)c2)c(=O)c1Cl` [Norflurazon], the “confirmed transformed plants resistant to the herbicide” value in experiment [1] (construct pPDATG1303) turned out to be 1; in experiment [1] (construct pPDSER1303) it was 3; in experiment [1] (construct pPDTHR1303) it was 1.

For Fluridone, the R/S in experiment [2] is 1.
